Experimental data: the supplement of paper PMC10307832

Legend:
Assay in all cases: relative viability (nuclei count vs DMSO), 5 days (fraction); higher = more cells survive
[1] = test system: CAL-12T
How it was run: (§1)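 Lung cancer cell lines in 1536-well plates were dosed by pin tool the day after seeding, either with one drug alone or with a fixed anchor-drug dose plus five library-drug doses (not always all listed) in √10 steps. After 5 days, cells were fixed and their nuclei stained in one step (final 0.05% Triton X-100, 1% formaldehyde, 1 ug/ml Hoechst), then counted on 4× images. Relative viability is the nuclei count in treated wells divided by that in vehicle wells. Values are medians of duplicate plates.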

[2] = test system: COR-L 105
How it was run: as §1

[3] = test system: H3255
How it was run: as §1

[4] = test system: HARA
How it was run: as §1

[5] = test system: HCC-15
How it was run: as §1

[6] = test system: HCC-366
How it was run: as §1

[7] = test system: LC-2-ad
How it was run: as §1

[8] = test system: LU99A
How it was run: as §1

[9] = test system: NCI-H1395
How it was run: as §1

[10] = test system: NCI-H1666
How it was run: as §1

[11] = test system: NCI-H1734
How it was run: as §1

[12] = test system: NCI-H1944
How it was run: as §1

[13] = test system: NCI-H1975
How it was run: as §1

[14] = test system: NCI-H1993
How it was run: as §1

[15] = test system: NCI-H2228
How it was run: as §1

[16] = test system: NCI-H3122
How it was run: as §1

[17] = test system: NCI-H520
How it was run: as §1

[18] = test system: NCI-H647
How it was run: as §1

[19] = test system: NCI-H661
How it was run: as §1

[20] = test system: NCI-H838
How it was run: as §1

[21] = test system: PC-14
How it was run: as §1

[22] = test system: PC-3 [JPC-3]
How it was run: as §1

[23] = test system: SK-LU-1
How it was run: as §1

O=C(O)CCCCC(CCSCc1ccccc1)SCc1ccccc1 (centres undefined) [CPI-613] + CC(=O)c1c(C)c2cnc(Nc3ccc(N4CCNCC4)cn3)nc2n(C2CCCC2)c1=O [Palbociclib] (partner 0.5 µM)
relative viability ([1]; first compound 5 µM): 0.321
relative viability ([1]; first compound 15.81 µM): 0.283
relative viability ([1]; first compound 50 µM): 0.461
relative viability ([1]; first compound 158.11 µM): 0.0907
relative viability ([1]; first compound 500 µM): 0.0203
relative viability ([2]; first compound 5 µM): 0.423
relative viability ([2]; first compound 15.81 µM): 0.441
relative viability ([2]; first compound 50 µM): 0.379
relative viability ([2]; first compound 158.11 µM): 0.294
relative viability ([2]; first compound 500 µM): 0.26
relative viability ([3]; first compound 5 µM): 0.296
relative viability ([3]; first compound 15.81 µM): 0.302
relative viability ([3]; first compound 50 µM): 0.339
relative viability ([3]; first compound 158.11 µM): 0.328
relative viability ([3]; first compound 500 µM): 0.302
relative viability ([4]; first compound 5 µM): 0.214
relative viability ([4]; first compound 15.81 µM): 0.26
relative viability ([4]; first compound 50 µM): 0.309
relative viability ([4]; first compound 158.11 µM): 0.198
relative viability ([4]; first compound 500 µM): 0.105
relative viability ([5]; first compound 5 µM): 0.649
relative viability ([5]; first compound 15.81 µM): 0.694
relative viability ([5]; first compound 50 µM): 0.681
relative viability ([5]; first compound 158.11 µM): 0.332
relative viability ([5]; first compound 500 µM): 0.126
relative viability ([6]; first compound 5 µM): 0.354
relative viability ([6]; first compound 15.81 µM): 0.322
relative viability ([6]; first compound 50 µM): 0.336
relative viability ([6]; first compound 158.11 µM): 0.0258
relative viability ([6]; first compound 500 µM): 0.006
relative viability ([7]; first compound 5 µM): 0.446
relative viability ([7]; first compound 15.81 µM): 0.472
relative viability ([7]; first compound 50 µM): 0.489
relative viability ([7]; first compound 158.11 µM): 0.24
relative viability ([7]; first compound 500 µM): 0.168
relative viability ([8]; first compound 5 µM): 0.383
relative viability ([8]; first compound 15.81 µM): 0.411
relative viability ([8]; first compound 50 µM): 0.372
relative viability ([8]; first compound 158.11 µM): 0.193
relative viability ([8]; first compound 500 µM): 0.264
relative viability ([9]; first compound 5 µM): 0.619
relative viability ([9]; first compound 15.81 µM): 0.641
relative viability ([9]; first compound 50 µM): 0.601
relative viability ([9]; first compound 158.11 µM): 0.57
relative viability ([9]; first compound 500 µM): 0.486
relative viability ([10]; first compound 5 µM): 0.68
relative viability ([10]; first compound 15.81 µM): 0.577
relative viability ([10]; first compound 50 µM): 0.574
relative viability ([10]; first compound 158.11 µM): 0.469
relative viability ([10]; first compound 500 µM): 0.425
relative viability ([11]; first compound 5 µM): 0.314
relative viability ([11]; first compound 15.81 µM): 0.274
relative viability ([11]; first compound 50 µM): 0.335
relative viability ([11]; first compound 158.11 µM): 0.199
relative viability ([11]; first compound 500 µM): 0.144
relative viability ([12]; first compound 5 µM): 0.331
relative viability ([12]; first compound 15.81 µM): 0.312
relative viability ([12]; first compound 50 µM): 0.335
relative viability ([12]; first compound 158.11 µM): 0.259
relative viability ([12]; first compound 500 µM): 0.26
relative viability ([13]; first compound 5 µM): 0.638
relative viability ([13]; first compound 15.81 µM): 0.645
relative viability ([13]; first compound 50 µM): 0.388
relative viability ([13]; first compound 158.11 µM): 0.562
relative viability ([13]; first compound 500 µM): 0.0655
relative viability ([14]; first compound 5 µM): 0.611
relative viability ([14]; first compound 15.81 µM): 0.581
relative viability ([14]; first compound 50 µM): 0.715
relative viability ([14]; first compound 158.11 µM): 0.468
relative viability ([14]; first compound 500 µM): 0.38
relative viability ([15]; first compound 5 µM): 0.693
relative viability ([15]; first compound 15.81 µM): 0.622
relative viability ([15]; first compound 50 µM): 0.679
relative viability ([15]; first compound 158.11 µM): 0.45
relative viability ([15]; first compound 500 µM): 0.0679
relative viability ([16]; first compound 5 µM): 0.178
relative viability ([16]; first compound 15.81 µM): 0.198
relative viability ([16]; first compound 50 µM): 0.175
relative viability ([16]; first compound 158.11 µM): 0.155
relative viability ([16]; first compound 500 µM): 0.145
relative viability ([17]; first compound 5 µM): 0.225
relative viability ([17]; first compound 15.81 µM): 0.2
relative viability ([17]; first compound 50 µM): 0.169
relative viability ([17]; first compound 158.11 µM): 0.119
relative viability ([17]; first compound 500 µM): 0.117
relative viability ([18]; first compound 5 µM): 0.341
relative viability ([18]; first compound 15.81 µM): 0.312
relative viability ([18]; first compound 50 µM): 0.316
relative viability ([18]; first compound 158.11 µM): 0.022
relative viability ([18]; first compound 500 µM): 0.0072
relative viability ([19]; first compound 5 µM): 0.404
relative viability ([19]; first compound 15.81 µM): 0.374
relative viability ([19]; first compound 50 µM): 0.387
relative viability ([19]; first compound 158.11 µM): 0.24
relative viability ([19]; first compound 500 µM): 0.132
relative viability ([20]; first compound 5 µM): 0.21
relative viability ([20]; first compound 15.81 µM): 0.189
relative viability ([20]; first compound 50 µM): 0.216
relative viability ([20]; first compound 158.11 µM): 0.139
relative viability ([20]; first compound 500 µM): 0.0859
relative viability ([21]; first compound 5 µM): 0.534
relative viability ([21]; first compound 15.81 µM): 0.54
relative viability ([21]; first compound 50 µM): 0.49
relative viability ([21]; first compound 158.11 µM): 0.0565
relative viability ([21]; first compound 500 µM): 0.0114
relative viability ([22]; first compound 5 µM): 0.559
relative viability ([22]; first compound 50 µM): 0.512
relative viability ([22]; first compound 158.11 µM): 0.265
relative viability ([22]; first compound 500 µM): 0.263
relative viability ([23]; first compound 5 µM): 0.422
relative viability ([23]; first compound 15.81 µM): 0.392
relative viability ([23]; first compound 50 µM): 0.276
relative viability ([23]; first compound 158.11 µM): 0.32
relative viability ([23]; first compound 500 µM): 0.202
